Tests used:
[1] = test system: PKB Ser473 phosphorylation in Rat1-myr-HA-p110 alpha cells; assay: Reverse protein array assay, PKB Ser473 phosphorylation in Rat1-myr-p110 alpha cells; assay type: cell-based; conditions: 0.5 h, pAkt Ser473, 30 minutes compound incubation, read-out: p-PKB IC50
In short: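 Lysates were arrayed at four dilutions, and phospho-PKB Ser473 was quantified by relative fluorescence signal. They came from Rat1-myr-HA-p110 alpha, beta or delta cells exposed for 30 min at 37 °C to an 8-point compound series with 0.2% DMSO constant.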

[2] = biological target: T1, PI3K beta (Homo sapiens, UniProt P42338); assay: PI3K beta kinase assay (Kinase-Glo luminescence); assay type: biochemical
T1 construct: for the full-length p110-b subunit are generated and fused by overlapping PCR; p85(iSH2) fusion partner (see partner chain) (N); His tag (C); made in house; host or cells: baculovirus; Tn5 (Trichoplusia ni) or TiniPro insect cells
In short: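 p110β full-length/p85 iSH2 construct (BV-949), 25 nM, with 1 μM ATP and 10 μg/mL phosphatidylinositol in 10 mM Tris pH 7.5, 3 mM MgCl2, 50 mM NaCl, 0.05% CHAPS, 1 mM DTT. 60 min at room temperature; ATP remaining read by Kinase-Glo luminescence. IC50 from 8-point four-parameter logistic fit.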

[3] = biological target: T2, mTOR (Homo sapiens, UniProt P42345); assay: Biochemical assay for m-TOR by TR-FRET; conditions: 8 μM ATP, 400 nM GFP-4EBP1, 0.5 nM mTOR
T2 construct: purchased Invitrogen Corporation (Carlsbad/CA, USA) PV4753
In short: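 mTOR (0.5 nM) was incubated at rt with ATP (8 μM final) and GFP-4EBP1 (400 nM final) in 50 mM HEPES pH 7.5, 10 mM MnCl2, 50 mM NaCl, 1 mM EGTA, 1 mM DTT. EDTA stop with Tb3+-anti-p4EBP1 [pThr46] antibody (0.5 nM); TR-FRET read 15 min later.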

T1 sequence (P42338 with tags, fused parts or gaps limits assumed): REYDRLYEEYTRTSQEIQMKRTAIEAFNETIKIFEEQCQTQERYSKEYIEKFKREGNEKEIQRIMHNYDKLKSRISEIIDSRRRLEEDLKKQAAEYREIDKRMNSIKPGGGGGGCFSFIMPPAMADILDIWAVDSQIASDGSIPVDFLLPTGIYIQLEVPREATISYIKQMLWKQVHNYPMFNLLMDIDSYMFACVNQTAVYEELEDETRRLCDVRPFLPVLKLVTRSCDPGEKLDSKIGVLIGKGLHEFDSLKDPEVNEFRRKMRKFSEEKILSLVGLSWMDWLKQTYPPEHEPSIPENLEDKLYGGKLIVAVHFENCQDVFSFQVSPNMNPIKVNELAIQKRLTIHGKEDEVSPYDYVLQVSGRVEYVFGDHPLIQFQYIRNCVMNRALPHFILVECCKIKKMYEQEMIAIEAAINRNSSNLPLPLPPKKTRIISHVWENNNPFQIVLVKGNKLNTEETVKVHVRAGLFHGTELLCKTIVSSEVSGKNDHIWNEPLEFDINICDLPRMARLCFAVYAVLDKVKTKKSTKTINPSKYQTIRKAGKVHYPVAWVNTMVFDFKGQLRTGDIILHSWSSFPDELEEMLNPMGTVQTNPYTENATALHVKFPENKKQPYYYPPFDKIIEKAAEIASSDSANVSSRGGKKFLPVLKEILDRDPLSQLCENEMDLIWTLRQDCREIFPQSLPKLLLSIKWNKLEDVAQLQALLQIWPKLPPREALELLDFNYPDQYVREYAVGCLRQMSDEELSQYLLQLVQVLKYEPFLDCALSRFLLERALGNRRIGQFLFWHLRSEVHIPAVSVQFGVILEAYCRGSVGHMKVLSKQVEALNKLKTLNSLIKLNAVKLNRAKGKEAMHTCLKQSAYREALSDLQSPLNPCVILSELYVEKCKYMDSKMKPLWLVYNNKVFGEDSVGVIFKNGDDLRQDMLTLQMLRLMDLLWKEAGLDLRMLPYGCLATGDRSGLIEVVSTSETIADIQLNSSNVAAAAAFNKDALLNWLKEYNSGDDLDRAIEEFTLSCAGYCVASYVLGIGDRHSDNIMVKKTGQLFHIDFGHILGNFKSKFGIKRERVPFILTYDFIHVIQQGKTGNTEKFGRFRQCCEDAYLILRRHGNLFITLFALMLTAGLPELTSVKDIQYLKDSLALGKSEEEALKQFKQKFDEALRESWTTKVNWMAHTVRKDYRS
T2 sequence (P42345 1360-2549 limits assumed): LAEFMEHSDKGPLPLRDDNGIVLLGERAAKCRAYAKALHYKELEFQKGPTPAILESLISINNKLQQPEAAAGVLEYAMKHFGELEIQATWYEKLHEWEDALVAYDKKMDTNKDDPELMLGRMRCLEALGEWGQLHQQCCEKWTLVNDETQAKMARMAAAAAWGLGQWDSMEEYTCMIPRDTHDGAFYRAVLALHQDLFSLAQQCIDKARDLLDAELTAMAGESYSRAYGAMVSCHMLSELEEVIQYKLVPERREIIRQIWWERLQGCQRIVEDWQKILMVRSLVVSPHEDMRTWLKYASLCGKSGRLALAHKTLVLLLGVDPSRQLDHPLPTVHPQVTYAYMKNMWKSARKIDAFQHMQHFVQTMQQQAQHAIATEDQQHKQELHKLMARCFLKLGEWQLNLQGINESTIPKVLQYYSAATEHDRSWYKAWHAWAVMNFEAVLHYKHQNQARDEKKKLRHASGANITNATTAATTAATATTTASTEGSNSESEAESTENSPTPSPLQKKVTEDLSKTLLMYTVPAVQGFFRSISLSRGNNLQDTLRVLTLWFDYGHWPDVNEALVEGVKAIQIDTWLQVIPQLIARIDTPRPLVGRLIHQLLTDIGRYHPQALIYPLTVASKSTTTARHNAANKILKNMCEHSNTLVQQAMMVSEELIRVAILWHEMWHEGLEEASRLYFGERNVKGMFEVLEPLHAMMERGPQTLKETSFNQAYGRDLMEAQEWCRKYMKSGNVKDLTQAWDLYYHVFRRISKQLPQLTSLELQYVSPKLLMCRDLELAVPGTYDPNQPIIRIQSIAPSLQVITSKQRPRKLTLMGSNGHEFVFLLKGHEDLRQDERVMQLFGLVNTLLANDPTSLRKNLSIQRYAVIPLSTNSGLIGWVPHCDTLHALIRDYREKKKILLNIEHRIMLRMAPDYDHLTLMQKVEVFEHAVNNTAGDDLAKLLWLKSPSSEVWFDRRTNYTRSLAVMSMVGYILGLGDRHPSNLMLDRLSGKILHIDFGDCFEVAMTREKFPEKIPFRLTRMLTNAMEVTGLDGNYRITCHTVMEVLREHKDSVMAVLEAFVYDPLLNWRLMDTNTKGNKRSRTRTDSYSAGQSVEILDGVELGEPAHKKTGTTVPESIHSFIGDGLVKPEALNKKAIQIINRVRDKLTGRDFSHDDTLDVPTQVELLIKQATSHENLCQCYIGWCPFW

SMILES	IC50 [1] [nM]	IC50 [2] [nM]	IC50 [3] [nM]
COCc1ncc(-c2ccc3ncc4c(c3c2)n(-c2cn(C)nc2C)c(=O)n4C)cc1OC(C)C [Example 191.1, 1-(1,3-Dimethyl-1H-pyrazol-4-yl)-8-(5-isopropoxy-6-methoxymethyl-pyridin-3-yl)-3-methyl-1,3-dihydro-imidazo[4,5-c]quinolin-2-one]	14	24	25
COc1cc(-c2ccc3ncc4c(c3c2)n(-c2cn(C)nc2C)c(=O)n4C)cnc1CO [Example 193, 1-(1,3-Dimethyl-1H-pyrazol-4-yl)-8-(6-hydroxymethyl-5-methoxy-pyridin-3-yl)-3-methyl-1,3-dihydro-imidazo[4,5-c]quinolin-2-one]	8	50	21
COCc1ncc(-c2ccc3ncc4c(c3c2)n(-c2cn(C)nc2C)c(=O)n4C)cc1OC [Example 195.1, 1-(1,3-Dimethyl-1H-pyrazol-4-yl)-8-(5-methoxy-6-methoxymethyl-pyridin-3-yl)-3-methyl-1,3-dihydro-imidazo[4,5-c]quinolin-2-one]	63	72	48
COCc1ncc(-c2ccc3ncc4c(c3c2)n(-c2cn(C(C)C)nc2C)c(=O)n4C)cc1OC [Example 195.2, 1-(1-Isopropyl-3-methyl-1H-pyrazol-4-yl)-8-(5-methoxy-6-methoxymethyl-pyridin-3-yl)-3-methyl-1,3-dihydro-imidazo[4,5-c]quinolin-2-one]	48	163	87
CCn1cc(-n2c(=O)n(C)c3cnc4ccc(-c5cnc(COC)c(OC)c5)cc4c32)c(C)n1 [Example 195.3, 1-(1-Ethyl-3-methyl-1H-pyrazol-4-yl)-8-(5-methoxy-6-methoxymethyl-pyridin-3-yl)-3-methyl-1,3-dihydro-imidazo[4,5-c]quinolin-2-one]	92	161	76
[2H]C([2H])([2H])OCc1ncc(-c2ccc3ncc4c(c3c2)n(-c2cn(C)nc2Cl)c(=O)n4C)cc1OC [Example 199, 1-(3-Chloro-1-methyl-1H-pyrazol-4-yl)-8-(5-methoxy-6-trideuteromethoxymethyl-pyridin-3-yl)-3-methyl-1,3-dihydro-imidazo[4,5-c]quinolin-2-one]	23	27	12
COCc1cc(-c2ccc3ncc4c(c3c2)n(-c2cn(C)nc2C)c(=O)n4C)cnc1OC [Example 202, 1-(1,3-Dimethyl-1H-pyrazol-4-yl)-8-(6-methoxy-5-methoxymethyl-pyridin-3-yl)-3-methyl-1,3-dihydro-imidazo[4,5-c]quinolin-2-one]	23	13	29
Cc1nn(C)cc1-n1c(=O)n(C)c2cnc3ccc(-c4cnc5c(c4)OCCN5C)cc3c21 [Example 209, 1-(1,3-Dimethyl-1H-pyrazol-4-yl)-3-methyl-8-(4-methyl-3,4-dihydro-2H-pyrido[3,2-b][1,4]oxazin-7-yl)-1,3-dihydro-imidazo[4,5-c]quinolin-2-one]	18	273	21
Cc1nn(C)cc1-n1c(=O)n(C)c2cnc3ccc(-c4cncc(C(C)(C)O)c4)cc3c21 [Example 215.2, 1-(1,3-Dimethyl-1H-pyrazol-4-yl)-8-[5-(1-hydroxy-1-methyl-ethyl)-pyridin-3-yl]-3-methyl-1,3-dihydro-imidazo[4,5-c]quinolin-2-one]	43	10	9
Cc1nn(C)cc1-n1c(=O)n(C)c2cnc3ccc(-c4cncc(C5(O)CCCC5)c4)cc3c21 [Example 218, 1-(1,3-Dimethyl-1H-pyrazol-4-yl)-8-[5-(1-hydroxy-cyclopentyl)-pyridin-3-yl]-3-methyl-1,3-dihydro-imidazo[4,5-c]quinolin-2-one]	22	19	41
Cc1nn(C)cc1-n1c(=O)n(C)c2cnc3ccc(-c4cncc(C(C)(C)C#N)c4)cc3c21 [Example 220.1, 2-{5-[1-(1,3-Dimethyl-1H-pyrazol-4-yl)-3-methyl-2-oxo-2,3-dihydro-1H-imidazo[4,5-c]quinolin-8-yl]-pyridin-3-yl}-2-methyl-propionitrile]	10	23	27
CNC(=O)c1cc(-c2ccc3ncc4c(c3c2)n(-c2cn(C(C)C)nc2C)c(=O)n4C)cnc1N [Example 224.2, 2-Amino-5-[1-(1-isopropyl-3-methyl-1H-pyrazol-4-yl)-3-methyl-2-oxo-2,3-dihydro-1H-imidazo[4,5-c]quinolin-8-yl]-N-methyl-nicotinamide]	104	280	24
COc1ncc(-c2ccc3ncc4c(c3c2)n(-c2cn(C)nc2C)c(=O)n4C)c(OC)n1 [Example 234.2, 8-(2,4-Dimethoxy-pyrimidin-5-yl)-1-(1,3-dimethyl-1H-pyrazol-4-yl)-3-methyl-1,3-dihydro-imidazo[4,5-c]quinolin-2-one]	13	25	10
CCn1cc(-n2c(=O)n(C)c3cnc4ccc(-c5cnc(NC)nc5OC)cc4c32)c(C)n1 [Example 236, 1-(1-Ethyl-3-methyl-1H-pyrazol-4-yl)-8-(4-methoxy-2-methylamino-pyrimidin-5-yl)-3-methyl-1,3-dihydro-imidazo[4,5-c]quinolin-2-one]	< 5	90	< 3
COc1ccc(-c2ccc3ncc4[nH]c(=O)n(-c5cn(C)nc5C)c4c3n2)cc1OC [Example 249, 8-(3,4-dimethoxy-phenyl)-1-(1,3-dimethyl-1H-pyrazol-4-yl)-1,3-dihydro-1,3,5,9-tetraaza-cyclopenta[a]naphthalen-2-one]	7	33	30
COc1ccc(-c2ccc3ncc4c(c3n2)n(-c2cn(C)nc2C)c(=O)n4C)cc1OC [Example 250, 8-(3,4-Dimethoxy-phenyl)-1-(1,3-dimethyl-1H-pyrazol-4-yl)-3-methyl-1,3-dihydro-1,3,5,9-tetraaza-cyclopenta[a]naphthalen-2-one]	41	68	135
